In brackets after ≈: the same amount, converted by molar mass.
Assays:
Assay type in all cases: cell-based
[1] = tested on: Candida albicans (strain TS3); assay: Anti-fungal susceptibility test (microdilution), fungus C; settings: Candida albicans, no visible growth after 48 hours at 35° C, read-out: MIC
Method: (§1) The antifungal activities of the test compounds (compounds of the invention and known prior art compounds) were measured according to standard microdilution methods (Cryptococcus/Aspergillus: Ghannoum et al., Journal of Clinical Microbiology 1992, 30 (11): 2881-2886; Candida: Reference method for broth dilution susceptibility testing of yeast: proposed standard, NCCLS document M27-P, National Committee for Clinical Laboratory Standards 1992, Villanova, Pa).
(§2) A serial dilution series starting from 64 µg/mL test compound per well down to 0.125 µg/mL test compound per well was applied for each test compound on each fungus. The MIC of each compound was defined as the concentration which produces no visible growth after 48 hours (Candida) and 72 hours (Cryptococcus, Aspergillus) of culture at 35° C.
(§3) The following fungi were assessed: • A) Candida albicans (ATCC 10231) • B) Candida albicans (ATCC 90028) • C) Candida albicans (strain TS3, Shrikantha et al., Journal of Bacteriology 2000, 182(6):1580-1591) • D) Candida parapsilosis (ATCC 22019) • E) Cryptocoocus neoformans (ATCC 90112) • F) Cryptocoocus neoformans (strain H99; Ganendren et al., Antimicrobial Agents and Chemotherapy, 2004, 48(5):1561-1569) • G) Cryptocoocus gattii (ATCC 32608) • H) Aspergillus fumigatus (ATCC 204305) • I) Aspergillus fumigatus (strain 322-384)

[2] = tested on: RKOp21 (human colon adenocarcinoma) cells; assay: XTT cytotoxicity assay, RKOp21 cells; settings: 48 h, 2 days of continuous drug exposure
Method: (§4) Human tumor cell lines KB/HeLa (ATCC CCL17, human cervix carcinoma), PC3 (ATCC CRL1435, human prostate carcinoma) and RKOp21 (human colon adenocarcinoma) cells were used in an automated XTT screening assay for the assessment of cytotoxicity.
(§5) The XTT assay quantifies cellular metabolic activity which correlates with cell viability and cell number. Test compounds (selected compounds of the invention and known substances as controls) are dissolved in culture medium at 600µM and added to the tumor cells in 10 different concentrations in a semi-logarithmic fashion starting from 100 µM as highest concentration.
(§6) 48h later cellular metabolic activity of cells treated with test compounds is quantified by measurement of the absorbance at 490nm (conversion of XTT dye) in comparison to untreated control cells (100% viability).
(§7) KB/HeLa and PC3 cells were cultivated in RPMI medium supplemented with 10% heat inactivated fetal calf serum, 2 mM glutamine, 100 U/ml penicillin, and 100 µg/ml streptomycin. RKOp21 cells were grown in DMEM supplemented with 10% heat inactivated fetal calf serum, 2 mM glutamine, 100 U/ml penicillin, and 100 µg/ml streptomycin. All cells were cultured at 37°C in 5% CO2 humidified air.
(§8) On the first day of the experiment cells were harvested from exponential phase cultures by trypsination, counted and plated into 96 well flat-bottom micro titer plates depending on the cell line as listed below:
(§9) After a 24h recovery to allow the cells to resume exponential growth, the test compounds were diluted immediately prior to use and transferred in 25µl volume to the wells.
(§10) Following 2 days of continuous drug exposure 50µl of freshly prepared XTT-PMS solution (2% […] PMS in PBS + 98% 1 mg/ml XTT in RPMI 1640 without phenol red) was added to the wells. To measure the proportion of living cells, the cells were incubated for 3 h with XTT-PMS reagent at 37°C, 5% CO2, humidified atmosphere allowing to form the formazan salt. The amount of soluble formazan salt produced by cellular reduction of XTT is quantified by measuring the absorbance at 490nm using the Biomek® 2000 ELISA plate reader.
(§11) %-inhibition (cytotoxicity) of each test compound was calculated in relation to untreated control cells. Inhibition curves were generated and IC50 values calculated by using GraphPad Prism.

[3] = tested on: Candida parapsilosis (ATCC 22019); assay: Anti-fungal susceptibility test (microdilution), fungus D; settings: ATCC22019, no visible growth after 48 hours at 35° C, read-out: MIC
Method: as §1, §2, §3

[4] = tested on: PC3 (ATCC CRL1435, human prostate carcinoma); assay: XTT cytotoxicity assay, PC3 cells; settings: PC-3, 48 h, 2 days of continuous drug exposure
Method: as §4, §5, §6, §7, §8, §9, §10, §11

[5] = tested on: KB/HeLa (ATCC CCL17, human cervix carcinoma); assay: XTT cytotoxicity assay, KB/HeLa cells; settings: 48 h, 2 days of continuous drug exposure
Method: as §4, §5, §6, §7, §8, §9, §10, §11

[6] = tested on: Aspergillus fumigatus (ATCC 204305); assay: Anti-fungal susceptibility test (microdilution), fungus H; settings: Aspergillus fumigatus, ATCC204305, no visible growth after 72 hours at 35° C, read-out: MIC
Method: as §1, §2, §3

[7] = tested on: Trypanosoma brucei rhodesiense (strain STIB900); assay: In vitro drug activity assay, protozoon B (bloodstream form trypomastigotes, Alamar Blue); settings: incubated for 72 hours
Method: Trypanosoma brucei rhodesiense STIB900 bloodstream form trypomastigotes were maintained in HMI-18 medium (Hirumi H, Hirumi K, J Parasitol. 1989, 75(6):985-989) with 15% heat-inactivated fetal calf serum at 37°C, 5% CO2, humidified atmosphere. Trypomastigotes were washed and resuspended in fresh medium at a concentration of 2 x 10^5 mL. Test compounds were given to the trypomastigotes and plates were incubated for 72 hours at 37°C, 5% CO2, humidified atmosphere. At 72 hours the plates were assessed microscopically before Alamar Blue was added (Raz et al., Acta Trop. 1997, 68: 139-147). Plates were read after 5 to 6 hours at EX/EM 530/585 nm with a filter cutoff at 550 nm. ED50 values were calculated with Msxlfit (IDBS).
The following protozoa were assessed: • A) Trypanosoma cruzi (Tulahuan-LACZ amstigotes in PEM, Lorente SO et al., Antimicrobial agents and chemotherapy 2004, 48(8): 2937-2950; Buckner et al., Infection and Immunity 1999, 67(1): 403-409; Buckner et al., Antimicrobial Agents and Chemotherapy 1996, 40(11): 2592-2597) • B) Trypanosoma brucei rhodesiense (strain STIB900, Lorente SO et al., Antimicrobial agents and chemotherapy 2004, 48(8): 2937-2950; Habtemariam S, BMC Pharmacology 2003, 3:6) • C) Plasmodium falciparum (strain K1, Korsinczky M et al., Antimicrobial agents and chemotherapy 2000, 44(8): 2100-2108; Thaitong S and Beale GH, Trans. R. Soc. Trop. Med. Hyg. 1981, 75: 271-273; Trager W and Jensen JB, Science 1976, 193: 673-675) • D) Plasmodium falciparum (strain 3D7, Mu et al., PLoS Biology 2005, 3(10): e335)

CCCCCCCCCCCCCCCCOP(=O)([O-])OCC[N+]1(C)CCCCC1 [Compound 2, Phosphoric acid 2-(1-methyl-piperidin-1-yl)-ethyl ester hexadecyl ester]
MIC [1]: 1.5 µg/mL (≈ 3.35 µM)
IC50 [2]: 40.9 µM
MIC [3]: 2 µg/mL (≈ 4.47 µM)
IC50 [4]: 19.6 µM
IC50 [5]: 5.02 µM
MIC [6]: 2 µg/mL (≈ 4.47 µM)
ED50 (µg/mL) [7]: 17,50 µg/mL
